In the PolyMetriX glass transition set one finds glass transition temperature data, which are given here for 49 molecules.

`*C(=O)NC1CCCC(*)O1` (repeat unit): the glass transition temperature came to 145.00 °C.

As to `*C(=O)NCCN(CCNC(=O)c1ccc2c(c1)C(=O)N(c1ccc(Oc3ccc(N4C(=O)c5ccc(*)cc5C4=O)cc3)cc1)C2=O)c1ccc(/C=C/c2ccc([N+](=O)[O-])cc2)cc1` (repeat unit), the glass transition temperature came to 224.00 °C.

In turn, `*C(F)(F)C(=O)NCCCCCCNS(*)(=O)=O` (repeat unit) showed a glass transition temperature of 52.00 °C.

In turn, `*CC#CCOC(=O)NCCCCCCNC(=O)O*` (repeat unit) yielded a glass transition temperature of -45.00 °C.

With `*CC(F)(F)C(F)(F)C(F)(F)C(F)(F)COC(=O)NCC(F)(F)C(F)(F)C(F)(F)C(F)(F)CNC(=O)O*` (repeat unit), the glass transition temperature amounted to 20.00 °C.

`*CC(F)(F)C(F)(F)C(F)(F)C(F)(F)COC(=O)NCCCCCCNC(=O)O*` (repeat unit) showed a glass transition temperature of -2.00 °C.

Molecule `*CC(F)(F)C(F)(F)COC(=O)NCC(F)(F)C(F)(F)C(F)(F)C(F)(F)CNC(=O)O*` (repeat unit) registered a glass transition temperature of 38.00 °C.

`*CC1CCCC(CNC(=O)c2cccc(C(=O)N*)c2)C1` (repeat unit) came in with a glass transition temperature of 180.00 °C.

Molecule `*CCCCCCCCCCCCCCCCOC(=O)NCCCCCCCCCCNC(=O)O*` (repeat unit) displayed a glass transition temperature of 34.00 °C.

Turning to `*CCCCCCCCCCCCCCNC(=O)NCCCCCCNC(=O)N*` (repeat unit), the glass transition temperature came to 47.00 °C.

Take `*CCCCCCCCCCCCNC(=O)c1ccc(C(=O)N*)c(Oc2ccccc2)c1` (repeat unit): the glass transition temperature was determined as 75.00 °C.

`*CCCCCCCCCCCCOC(=O)NCCCCCCNC(=O)O*` (repeat unit) came in with a glass transition temperature of 36.00 °C.

On to `*CCCCCCCCCCNC(=O)c1ccc(C(=O)N*)c(Oc2ccccc2)c1` (repeat unit), for which the glass transition temperature stood at 94.00 °C.

As for `*CCCCCCCCCCNC(=O)c1ccc(Cc2ccc(C(=O)N*)cc2)cc1` (repeat unit), the glass transition temperature was 140.00 °C.

Molecule `*CCCCCCCCCNC(=O)N*` (repeat unit) came in with a glass transition temperature of 130.00 °C.

For `*CCCCCCCCCNC(=O)c1ccc(C(=O)N*)cc1` (repeat unit), the glass transition temperature was 115.00 °C.

`*CCCCCCCNC(=O)c1ccc(C(=O)N*)cc1` (repeat unit) gave a glass transition temperature of 160.00 °C.

Turning to `*CCCCCCCNC(=S)N*` (repeat unit), the glass transition temperature amounted to 52.00 °C.

With `*CCCCCCCOC(=O)NCCCCCCNC(=O)O*` (repeat unit), the glass transition temperature was 55.00 °C.

`*CCCCCCNC(=O)C(=O)N*` (repeat unit): the glass transition temperature turned out to be 250.00 °C.

`*CCCCCCNC(=O)c1c(Cl)c(Cl)c(C(=O)N*)c(Cl)c1Cl` (repeat unit) yielded a glass transition temperature of 282.00 °C.

`*CCCCCCNC(=O)c1ccc(C(=O)N*)c(Oc2ccc(-c3ccccc3)cc2)c1` (repeat unit): the glass transition temperature is 112.00 °C.

The molecule `*CCCCCCNC(=O)c1ccc(C(=O)N*)c(Oc2ccc(Cl)cc2)c1` (repeat unit) registered a glass transition temperature of 112.00 °C.

`*CCCCCCNC(=O)c1ccc(C(=O)N*)cc1` (repeat unit) gave a glass transition temperature of 132.50 °C.

In turn, `*CCCCCCOC(=O)NC1CCC(CC2CCC(NC(=O)OCCCCCCOc3ccc(CCc4ccc(O*)cc4)cc3)CC2)CC1` (repeat unit) had a glass transition temperature of 40.30 °C.

`*CCCCCNC(=S)N*` (repeat unit): the glass transition temperature amounted to 55.00 °C.

`*CCCCNC(=O)c1ccc(C(=O)N*)c(Oc2ccccc2)c1` (repeat unit) came in with a glass transition temperature of 125.00 °C.

As for `*CCCCNC(=O)c1cccc(C(=O)N*)c1` (repeat unit), the glass transition temperature was 141.00 °C.

`*CCCNC(=O)c1ccc(C(=O)NCCCO*)cc1` (repeat unit) returned a glass transition temperature of 72.00 °C.

`*CCN(CCNC(=O)c1ccc2c(c1)C(=O)N(*)C2=O)c1ccc(/C=C/c2ccc([N+](=O)[O-])cc2)cc1` (repeat unit): the glass transition temperature is 142.00 °C.

In turn, `*CCNC(=O)c1ccc(C(=O)N*)c(Oc2ccccc2)c1` (repeat unit) came in with a glass transition temperature of 164.00 °C.

In the case of `*CCNC(=O)c1ccc([Si](c2ccccc2)(c2ccccc2)c2ccc(C(=O)NCCN(*)c3ccc(/C=C/c4ccc([N+](=O)[O-])cc4)cc3)cc2)cc1` (repeat unit), the glass transition temperature is 165.00 °C.

`*CCOC(=O)NC1CCC(CC2CCC(NC(=O)OCCOc3ccc(C4(c5ccc(O*)cc5)c5ccccc5-c5ccccc54)cc3)CC2)CC1` (repeat unit) displayed a glass transition temperature of 140.00 °C.

On to `*CCOC(=O)NCCCCCCCCCCNC(=O)O*` (repeat unit), for which the glass transition temperature came to 60.80 °C.

On to `*CCOC(=O)NCCCCCCNC(=O)O*` (repeat unit), for which the glass transition temperature was found to be 56.00 °C.

`*CCOC(=O)NCCCCCCNC(=O)OCCOc1ccc(C2(c3ccc(O*)cc3)c3ccccc3-c3ccccc32)cc1` (repeat unit): the glass transition temperature was determined as 61.00 °C.

Consider `*CCOCCOCCOCCOC(=O)NCCCCCCNC(=O)O*` (repeat unit), for which the glass transition temperature was -17.00 °C.

The molecule `*NC(CCC(=O)OCCCCCCCC)C(*)=O` (repeat unit) registered a glass transition temperature of -59.50 °C.

`*NC(CCC(=O)OCc1ccccc1)C(*)=O` (repeat unit) yielded a glass transition temperature of 17.00 °C.

Molecule `*Nc1ccc(Cc2ccc(NC(=O)NCCCCCCCCCCCCCCCCCCNC(*)=O)cc2)cc1` (repeat unit) came in with a glass transition temperature of 48.00 °C.

`*Nc1ccc(Cc2ccc(NC(=O)NCCCCCCCCCNC(*)=O)cc2)cc1` (repeat unit) came in with a glass transition temperature of -50.00 °C.

In turn, `*OC(=O)NC1CCC(CC2CCC(NC(=O)OC3CC4CC(*)CC(C3)O4)CC2)CC1` (repeat unit) gave a glass transition temperature of 225.00 °C.

For `*Oc1ccc(/N=C/CCC/C=N/c2ccc(OC(=O)NCCCCCCNC(*)=O)cc2)cc1` (repeat unit), the glass transition temperature stood at 72.00 °C.

In turn, `*Oc1ccc(C(c2ccc(Oc3c(F)c(F)c(C(=O)c4c(F)c(F)c(*)c(F)c4F)c(F)c3F)cc2)(C(F)(F)F)C(F)(F)F)cc1` (repeat unit) yielded a glass transition temperature of 149.00 °C.

`*Oc1ccc(C(c2ccc(Oc3ccc(C(=O)c4c(C(=O)c5ccc(*)cc5)c(-c5ccc(F)cc5)c(-c5ccc(F)cc5)c(-c5ccc(F)cc5)c4-c4ccc(F)cc4)cc3)cc2)(C(F)(F)F)C(F)(F)F)cc1` (repeat unit) returned a glass transition temperature of 253.00 °C.

Turning to `*Oc1ccc(C2(c3ccc(Oc4ccc(C(=O)c5c(C(=O)c6ccc(*)cc6)c(-c6ccccc6)c(-c6ccc7ccccc7c6)c(-c6ccc7ccccc7c6)c5-c5ccccc5)cc4)cc3)c3ccccc3-c3ccccc32)cc1` (repeat unit), the glass transition temperature came out at 310.00 °C.

In turn, `*Oc1ccccc1C(=O)OC(=O)c1ccccc1OC(=O)C(C)C(C)C(*)=O` (repeat unit) had a glass transition temperature of 45.00 °C.

`*c1ccc(C(=O)NCCCCCCCCCCCCNC(=O)c2ccc(-c3nc4ccccc4nc3*)cc2)cc1` (repeat unit) yielded a glass transition temperature of 154.00 °C.

Molecule `*c1cccc(S(=O)(=O)NCCCCCCNS(*)(=O)=O)c1` (repeat unit) registered a glass transition temperature of 67.00 °C.
